Measured values from US20080051466A1, “Isoalpha acid based protein kinase modulation cancer treatment” (Metaproteomics, LLC, priority 2006, published 2008).

Legend:
Experiment in all cases: KinaseProfiler Assay
Format in all cases: biochemical
[1] = target: PKBα (Homo sapiens, UniProt P31749); conditions: read-out: PKBα, % of Control
[2] = target: MAPKAP-K3 (Homo sapiens, UniProt Q16644); conditions: read-out: MAPKAP-K3, % of Control
[3] = target: T1, EphA8 (Homo sapiens, UniProt P29322); conditions: read-out: EphA8, % of Control
T1 sequence (P29322 28-1005): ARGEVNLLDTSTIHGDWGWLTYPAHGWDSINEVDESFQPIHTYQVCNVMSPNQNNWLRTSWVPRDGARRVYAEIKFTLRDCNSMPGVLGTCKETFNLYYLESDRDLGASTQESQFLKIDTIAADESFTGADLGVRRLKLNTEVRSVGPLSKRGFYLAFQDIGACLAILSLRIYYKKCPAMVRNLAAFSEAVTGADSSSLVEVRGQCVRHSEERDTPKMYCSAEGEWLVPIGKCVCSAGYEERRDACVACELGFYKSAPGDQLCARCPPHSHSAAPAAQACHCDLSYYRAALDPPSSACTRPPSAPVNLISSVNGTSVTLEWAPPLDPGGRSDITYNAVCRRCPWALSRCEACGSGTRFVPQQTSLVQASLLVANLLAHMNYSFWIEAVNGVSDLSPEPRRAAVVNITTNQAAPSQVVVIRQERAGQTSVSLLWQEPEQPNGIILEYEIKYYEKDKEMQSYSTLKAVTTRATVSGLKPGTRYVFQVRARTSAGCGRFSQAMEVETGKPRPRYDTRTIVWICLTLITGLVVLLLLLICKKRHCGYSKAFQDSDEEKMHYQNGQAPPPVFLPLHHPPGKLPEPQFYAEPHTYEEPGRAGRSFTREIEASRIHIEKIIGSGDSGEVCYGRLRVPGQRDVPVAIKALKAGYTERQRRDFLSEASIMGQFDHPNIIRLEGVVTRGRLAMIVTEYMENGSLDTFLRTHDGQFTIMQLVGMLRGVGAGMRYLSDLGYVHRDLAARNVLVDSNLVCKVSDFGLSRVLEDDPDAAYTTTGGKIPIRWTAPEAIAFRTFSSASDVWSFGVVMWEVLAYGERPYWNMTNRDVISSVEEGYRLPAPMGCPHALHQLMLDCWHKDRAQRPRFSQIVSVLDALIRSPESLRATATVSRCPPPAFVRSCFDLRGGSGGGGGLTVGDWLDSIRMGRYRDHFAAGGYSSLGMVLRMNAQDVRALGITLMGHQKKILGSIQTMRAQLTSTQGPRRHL

[4] = target: T2, Aurora-A (Homo sapiens, UniProt O14965); conditions: read-out: Aurora-A, % of Control
T2 sequence (O14965 1-403): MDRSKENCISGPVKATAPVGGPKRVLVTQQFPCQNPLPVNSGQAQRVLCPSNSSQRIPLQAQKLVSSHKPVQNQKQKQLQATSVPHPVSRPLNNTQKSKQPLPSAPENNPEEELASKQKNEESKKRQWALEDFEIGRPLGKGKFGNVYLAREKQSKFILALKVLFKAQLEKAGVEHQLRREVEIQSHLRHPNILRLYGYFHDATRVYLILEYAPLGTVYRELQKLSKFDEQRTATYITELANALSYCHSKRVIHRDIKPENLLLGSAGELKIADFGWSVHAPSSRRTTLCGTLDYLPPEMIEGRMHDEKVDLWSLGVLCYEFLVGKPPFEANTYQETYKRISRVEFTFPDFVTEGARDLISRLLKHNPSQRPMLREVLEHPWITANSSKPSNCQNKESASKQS

[5] = target: BTK (Homo sapiens, UniProt Q06187); conditions: read-out: BTK, % of Control
[6] = target: PrKX (Homo sapiens, UniProt P51817); conditions: read-out: PrKX, % of Control
[7] = target: Hck (Homo sapiens, UniProt P08631); conditions: read-out: Hck, % of Control
[8] = target: PAK5 (Homo sapiens, UniProt Q9P286); conditions: read-out: PAK5, % of Control
[9] = target: cKit(D816H) (Homo sapiens, UniProt P10721, D816H); conditions: read-out: cKit(D816H), % of Control
Chain of cKit(D816H) (P10721 26-976 D816H): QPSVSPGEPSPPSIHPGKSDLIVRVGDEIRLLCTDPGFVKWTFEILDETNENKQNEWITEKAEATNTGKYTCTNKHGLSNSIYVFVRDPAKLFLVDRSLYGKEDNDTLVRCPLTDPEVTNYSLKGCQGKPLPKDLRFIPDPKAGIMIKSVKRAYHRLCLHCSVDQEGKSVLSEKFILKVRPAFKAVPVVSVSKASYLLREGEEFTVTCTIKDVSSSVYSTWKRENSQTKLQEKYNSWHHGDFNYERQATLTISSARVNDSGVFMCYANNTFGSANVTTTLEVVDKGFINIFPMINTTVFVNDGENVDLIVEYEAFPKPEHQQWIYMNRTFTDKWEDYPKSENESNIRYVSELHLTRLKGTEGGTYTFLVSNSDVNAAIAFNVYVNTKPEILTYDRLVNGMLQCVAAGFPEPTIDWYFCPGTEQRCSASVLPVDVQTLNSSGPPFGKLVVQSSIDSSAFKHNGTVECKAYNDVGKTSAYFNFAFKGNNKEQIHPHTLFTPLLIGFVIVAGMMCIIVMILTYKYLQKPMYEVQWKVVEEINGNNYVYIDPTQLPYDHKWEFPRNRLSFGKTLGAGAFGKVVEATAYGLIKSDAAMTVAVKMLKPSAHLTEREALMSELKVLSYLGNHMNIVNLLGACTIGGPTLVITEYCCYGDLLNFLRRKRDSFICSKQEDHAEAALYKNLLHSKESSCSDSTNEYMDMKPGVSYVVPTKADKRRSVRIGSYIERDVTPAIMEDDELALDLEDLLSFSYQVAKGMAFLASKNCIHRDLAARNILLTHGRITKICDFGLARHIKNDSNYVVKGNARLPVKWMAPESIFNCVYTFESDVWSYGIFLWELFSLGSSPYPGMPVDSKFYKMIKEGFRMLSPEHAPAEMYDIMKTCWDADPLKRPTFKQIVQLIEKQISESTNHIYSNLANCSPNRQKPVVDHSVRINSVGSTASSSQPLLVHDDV

Chain of PAK5 (Q9P286 whole entry): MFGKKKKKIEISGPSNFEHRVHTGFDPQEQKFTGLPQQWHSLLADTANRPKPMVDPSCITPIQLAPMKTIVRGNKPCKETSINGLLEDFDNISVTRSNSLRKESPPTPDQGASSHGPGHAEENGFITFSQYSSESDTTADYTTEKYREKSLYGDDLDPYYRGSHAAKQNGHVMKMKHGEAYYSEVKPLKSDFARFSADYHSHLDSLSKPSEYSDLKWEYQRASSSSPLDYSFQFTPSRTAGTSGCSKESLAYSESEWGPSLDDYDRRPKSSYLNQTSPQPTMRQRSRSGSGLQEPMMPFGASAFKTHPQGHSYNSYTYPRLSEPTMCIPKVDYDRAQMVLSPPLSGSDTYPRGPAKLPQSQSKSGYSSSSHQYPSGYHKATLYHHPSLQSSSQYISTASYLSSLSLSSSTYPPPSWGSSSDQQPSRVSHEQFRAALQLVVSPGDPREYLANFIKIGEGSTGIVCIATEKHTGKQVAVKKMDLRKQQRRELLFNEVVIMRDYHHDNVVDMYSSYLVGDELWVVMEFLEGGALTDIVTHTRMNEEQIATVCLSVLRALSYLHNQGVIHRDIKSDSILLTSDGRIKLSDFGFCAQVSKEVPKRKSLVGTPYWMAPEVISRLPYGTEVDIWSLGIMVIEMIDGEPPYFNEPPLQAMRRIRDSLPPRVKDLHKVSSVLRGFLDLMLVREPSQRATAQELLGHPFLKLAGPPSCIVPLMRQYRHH
Chain of PKBα (P31749 whole entry): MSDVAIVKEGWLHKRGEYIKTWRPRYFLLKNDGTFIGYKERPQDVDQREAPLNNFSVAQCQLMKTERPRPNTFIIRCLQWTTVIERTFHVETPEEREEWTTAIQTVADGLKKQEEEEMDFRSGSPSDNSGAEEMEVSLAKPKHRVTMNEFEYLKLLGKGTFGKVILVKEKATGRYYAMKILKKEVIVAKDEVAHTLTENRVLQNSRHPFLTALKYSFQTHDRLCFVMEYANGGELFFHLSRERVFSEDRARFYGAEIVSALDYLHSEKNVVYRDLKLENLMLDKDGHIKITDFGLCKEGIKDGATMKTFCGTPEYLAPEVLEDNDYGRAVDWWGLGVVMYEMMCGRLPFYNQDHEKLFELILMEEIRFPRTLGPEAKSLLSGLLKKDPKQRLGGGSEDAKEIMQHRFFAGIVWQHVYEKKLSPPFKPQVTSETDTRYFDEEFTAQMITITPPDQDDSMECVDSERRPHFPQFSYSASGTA
Chain of BTK (Q06187 whole entry): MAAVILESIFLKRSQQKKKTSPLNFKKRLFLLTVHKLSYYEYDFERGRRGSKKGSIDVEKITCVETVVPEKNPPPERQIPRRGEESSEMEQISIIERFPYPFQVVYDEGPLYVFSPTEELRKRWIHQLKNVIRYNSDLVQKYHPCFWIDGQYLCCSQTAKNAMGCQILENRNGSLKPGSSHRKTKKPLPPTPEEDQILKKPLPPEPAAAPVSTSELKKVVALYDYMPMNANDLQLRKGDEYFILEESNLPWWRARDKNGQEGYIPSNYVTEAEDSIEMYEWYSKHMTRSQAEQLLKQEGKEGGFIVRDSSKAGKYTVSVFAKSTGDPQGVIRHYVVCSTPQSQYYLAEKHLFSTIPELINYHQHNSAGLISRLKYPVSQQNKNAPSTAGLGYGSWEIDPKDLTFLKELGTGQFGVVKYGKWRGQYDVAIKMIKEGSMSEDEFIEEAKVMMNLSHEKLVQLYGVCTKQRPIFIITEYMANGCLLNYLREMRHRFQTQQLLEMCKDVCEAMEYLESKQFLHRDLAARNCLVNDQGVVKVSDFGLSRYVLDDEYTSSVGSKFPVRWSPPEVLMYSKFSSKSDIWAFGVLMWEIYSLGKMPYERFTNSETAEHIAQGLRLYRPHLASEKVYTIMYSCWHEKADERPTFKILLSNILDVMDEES
Chain of MAPKAP-K3 (Q16644 whole entry): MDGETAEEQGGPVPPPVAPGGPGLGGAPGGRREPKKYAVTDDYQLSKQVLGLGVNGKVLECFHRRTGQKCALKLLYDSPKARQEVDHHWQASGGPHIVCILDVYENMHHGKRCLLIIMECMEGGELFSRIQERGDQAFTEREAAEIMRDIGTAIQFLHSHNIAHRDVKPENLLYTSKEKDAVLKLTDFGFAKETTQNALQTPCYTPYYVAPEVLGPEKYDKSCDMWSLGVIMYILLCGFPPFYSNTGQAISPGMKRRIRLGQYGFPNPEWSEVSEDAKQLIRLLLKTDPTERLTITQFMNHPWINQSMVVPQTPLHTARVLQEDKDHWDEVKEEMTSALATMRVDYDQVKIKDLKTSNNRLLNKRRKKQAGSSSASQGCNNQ
Chain of PrKX (P51817 whole entry): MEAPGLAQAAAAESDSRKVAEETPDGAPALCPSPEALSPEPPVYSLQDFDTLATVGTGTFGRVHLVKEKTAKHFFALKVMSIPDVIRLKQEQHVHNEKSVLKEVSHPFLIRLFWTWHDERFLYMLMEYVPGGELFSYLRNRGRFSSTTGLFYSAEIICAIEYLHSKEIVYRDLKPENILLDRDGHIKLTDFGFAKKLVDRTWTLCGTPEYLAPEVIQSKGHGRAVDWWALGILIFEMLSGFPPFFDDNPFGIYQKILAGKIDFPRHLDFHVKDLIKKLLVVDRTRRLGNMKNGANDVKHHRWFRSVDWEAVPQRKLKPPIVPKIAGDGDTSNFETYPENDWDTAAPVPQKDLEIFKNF
Chain of Hck (P08631 whole entry): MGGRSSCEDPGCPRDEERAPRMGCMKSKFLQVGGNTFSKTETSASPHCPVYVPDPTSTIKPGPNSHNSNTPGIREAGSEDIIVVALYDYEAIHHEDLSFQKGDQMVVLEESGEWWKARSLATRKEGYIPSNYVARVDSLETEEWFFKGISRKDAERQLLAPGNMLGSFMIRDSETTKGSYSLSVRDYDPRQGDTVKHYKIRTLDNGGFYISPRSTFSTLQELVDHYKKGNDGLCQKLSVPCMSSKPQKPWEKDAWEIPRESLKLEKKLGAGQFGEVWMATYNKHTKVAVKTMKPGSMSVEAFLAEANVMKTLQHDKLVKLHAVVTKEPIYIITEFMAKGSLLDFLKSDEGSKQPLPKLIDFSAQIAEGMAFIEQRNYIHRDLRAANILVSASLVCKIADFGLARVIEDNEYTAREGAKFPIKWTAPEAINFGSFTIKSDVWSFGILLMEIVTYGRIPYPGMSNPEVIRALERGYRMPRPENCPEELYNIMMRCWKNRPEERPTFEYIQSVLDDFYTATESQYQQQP

remaining activity at 1 µg/mL ([1]; 1 ug/ml): 102% | remaining activity at 25 µg/mL ([1]; 25 ug/ml): 18% | remaining activity at 50 µg/mL ([1]; 50 ug/ml): 5% | remaining activity at 25 µg/mL ([2]; 25 ug/ml): 17% | remaining activity at 50 µg/mL ([2]; 50 ug/ml): 7% | remaining activity at 1 µg/mL ([3]; 1 ug/ml): 103% | remaining activity at 5 µg/mL ([3]; 5 ug/ml): 92% | remaining activity at 25 µg/mL ([3]; 25 ug/ml): 29% | remaining activity at 50 µg/mL ([3]; 50 ug/ml): 19% | remaining activity at 5 µg/mL ([4]; 5 ug/ml): 27% | remaining activity at 25 µg/mL ([4]; 25 ug/ml): 3% | remaining activity at 50 µg/mL ([4]; 50 ug/ml): 8% | remaining activity at 1 µg/mL ([5]; 1 ug/ml): 109% | remaining activity at 5 µg/mL ([5]; 5 ug/ml): 57% | remaining activity at 50 µg/mL ([5]; 50 ug/ml): 20% | remaining activity at 1 µg/mL ([6]; 1 ug/ml): 92% | remaining activity at 50 µg/mL ([6]; 50 ug/ml): 3% | remaining activity at 1 µg/mL ([7]; 1 ug/ml): 85% | remaining activity at 25 µg/mL ([7]; 25 ug/ml): 17% | remaining activity at 1 µg/mL ([8]; 1 ug/ml): 106% | remaining activity at 5 µg/mL ([8]; 5 ug/ml): 99% | remaining activity at 25 µg/mL ([8]; 25 ug/ml): 42% | remaining activity at 50 µg/mL ([8]; 50 ug/ml): 5% | remaining activity at 1 µg/mL ([9]; 1 ug/ml): 94% | remaining activity at 5 µg/mL ([9]; 5 ug/ml): 45% | remaining activity at 25 µg/mL ([9]; 25 ug/ml): 14%
Compound: COc1cc(O)c(CC=C(C)C)c(O)c1C(=O)/C=C/c1ccc(O)cc1 [Xanthohumol, xanthohumol]
